Earlier results as cited in patent US20230035823A1, “ANTIHISTAMINE AND ANTI-MICROBIAL NASAL SOLUTIONS AND RELATED METHODS” (Xlear, Inc., priority 2021, published 2023).

Key:
[1] = regular consumption
[2] = test system: Streptococcus pneumonia; settings: in vitro, during logarithmic growth phase
[3] = in vivo

For `OC[C@@H](O)[C@H](O)[C@@H](O)CO` [Xylitol, xylitol], the “incidence of dental caries” value [1] is given as “reduce the incidence of dental caries”, the “growth of Streptococcus pneumonia” value [2] is given as “inhibit the growth” and the moisturizing nasal passages [3] is given as “very effective”.
